For 16 compounds, T/C results are on record in PubChem BioAssay AID292 (DTP/NCI, 2004).

Where “and” joins values, the source holds several entries; their conditions need not be identical. Equal values may be shown once. Inconclusive results and toxic doses are left out.

The experiment relates to B6C3F1 mice, ip Sarcoma M5076, median survival T/C. Description: NCI In Vivo Anticancer Drug Screen. Data for tumor model Sarcoma M5076 (intraperitoneal) in B6C3F1 mice. The conditions noted are these: endpoint: median survival time, higher = longer survival. The essentials: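 Transplantable tumour in mice; compound-treated vs vehicle-treated groups. Read-out: survival. Value = treated/control ratio.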

Setting [1] is: dose: 400.0 mg/kg/injection, schedule: Q04DX004 (ip), vehicle: Klucel (hydroxypropylcellulose) (HPC).
[2] abbreviates: dose: 75.0 mg/kg/injection, schedule: Q04DX004 (ip), vehicle: saline with Tween-80.
The mark [3] stands for this setting: dose: 150.0 mg/kg/injection, schedule: Q04DX004 (ip), vehicle: saline with Tween-80.
[4] abbreviates: dose: 50.0 mg/kg/injection, schedule: Q04DX004 (ip), vehicle: Klucel (hydroxypropylcellulose) (HPC).
Setting [5] is: dose: 100.0 mg/kg/injection, schedule: Q04DX004 (ip), vehicle: Klucel (hydroxypropylcellulose) (HPC).
Where [6] appears, read: dose: 200.0 mg/kg/injection, schedule: Q04DX004 (ip), vehicle: Klucel (hydroxypropylcellulose) (HPC).
Where [7] appears, read: dose: 25.0 mg/kg/injection, schedule: Q04DX004 (ip), vehicle: Klucel (hydroxypropylcellulose) (HPC).

As for `O=C1N[C@H]2[C@H](O)[C@H](O)[C@@H](O)[C@H](O)[C@@H]2c2cc3c(c(O)c21)OCO3`, the T/C by setting is: (dose: 1.5 mg/kg/injection, schedule: Q04DX004 (ip), vehicle: saline + alcohol) 115 % of control and 121 % of control; (dose: 3.0 mg/kg/injection, schedule: Q01DX009 (ip), vehicle: saline + alcohol) 162 % of control and 163 % of control; (dose: 6.0 mg/kg/injection, schedule: Q01DX009 (ip), vehicle: saline + alcohol) 177 % of control; (dose: 6.25 mg/kg/injection, schedule: Q01DX009 (ip), vehicle: saline + alcohol) 152 % of control.

`CC(CN1CC(=O)NC(=O)C1)N1CC(=O)NC(=O)C1` (stereo not given): the T/C is 118 % of control (dose: 25.0 mg/kg/injection, schedule: Q04DX005 (ip), vehicle: saline with Tween-80) and 103 % of control (dose: 50.0 mg/kg/injection, schedule: Q04DX005 (ip), vehicle: saline with Tween-80).

For the compound `NC(=S)c1ncn(C2OC(COC=O)C(OC=O)C2OC=O)c1NC=O` (stereo not given), the T/C reads like this: (dose: 86.4 mg/kg/injection, schedule: Q04DX004 (ip), vehicle: Klucel (hydroxypropylcellulose) (HPC)) 182 % of control; (dose: 144.0 mg/kg/injection, schedule: Q04DX004 (ip), vehicle: Klucel (hydroxypropylcellulose) (HPC)) 174 % of control; (dose: 240.0 mg/kg/injection, schedule: Q04DX004 (ip), vehicle: Klucel (hydroxypropylcellulose) (HPC)) 184 % of control; under setting [1], 168 % of control and 198 % of control; (dose: 666.67 mg/kg/injection, schedule: Q04DX004 (ip), vehicle: Klucel (hydroxypropylcellulose) (HPC)) 229 % of control.

Take `C=C1COC(O)(C2OCOC(C3CC(=O)NC(=O)C3)C2O)C1C` (stereo not given): the T/C was 112 % of control (dose: 4.0 micrograms/kg/injection, schedule: Q04DX004 (ip), vehicle: water); 117 % of control (dose: 8.0 micrograms/kg/injection, schedule: Q04DX004 (ip), vehicle: water); 105 % of control (dose: 13.8 micrograms/kg/injection, schedule: Q04DX004 (ip), vehicle: water); 117 % of control (dose: 16.0 micrograms/kg/injection, schedule: Q04DX004 (ip), vehicle: water); 116 % of control (dose: 23.04 micrograms/kg/injection, schedule: Q04DX004 (ip), vehicle: water); 162 % of control (dose: 38.0 micrograms/kg/injection, schedule: Q04DX004 (ip), vehicle: water). For the same compound, the T/C (dose: 38.4 micrograms/kg/injection, schedule: Q04DX004 (ip), vehicle: water) was 110 % of control.

For the compound `COC1=C(C)C(=O)C2=C(C1=O)C(CO)N1C(C#N)C3CC4C(C1C2N1CCOC41)N3C` (stereo not given), the T/C is 97 % of control (dose: 0.12 mg/kg/injection, schedule: Q04DX004 (ip), vehicle: acid diluted with saline); 103 % of control (dose: 0.25 mg/kg/injection, schedule: Q04DX004 (ip), vehicle: acid diluted with saline); 100 % of control (dose: 0.5 mg/kg/injection, schedule: Q04DX004 (ip), vehicle: acid diluted with saline); 90 % of control and 93 % of control (dose: 1.0 mg/kg/injection, schedule: Q04DX004 (ip), vehicle: acid diluted with saline); 98 % of control and 109 % of control (dose: 2.0 mg/kg/injection, schedule: Q04DX004 (ip), vehicle: acid diluted with saline).

In the case of `C=C(C)C1C2CC3(C)C4(CO4)C4OC4C3(O)C1C(=O)O2` (stereo not given), the T/C (dose: 0.25 mg/kg/injection, schedule: Q04DX004 (ip), vehicle: Klucel (hydroxypropylcellulose) (HPC)) is 96 % of control; the T/C (dose: 0.5 mg/kg/injection, schedule: Q04DX004 (ip), vehicle: Klucel (hydroxypropylcellulose) (HPC)) is 112 % of control; the T/C (dose: 1.0 mg/kg/injection, schedule: Q04DX004 (ip), vehicle: Klucel (hydroxypropylcellulose) (HPC)) was 100 % of control.

`CS(=O)CCN=Cc1ccc(N=Nc2ccc(O)cc2)cc1` (stereo not given): the T/C runs as follows: (dose: 37.0 mg/kg/injection, schedule: Q04DX004 (ip), vehicle: saline with Tween-80) 109 % of control; under setting [2], 90 % of control; under setting [3], 87 % of control; (dose: 600.0 mg/kg/injection, schedule: Q04DX004 (ip), vehicle: saline with Tween-80) 87 % of control.

`Cc1cc(C)cc(N(C2=NCCS2)C2=NCCS2)c1`: the T/C is 100 % of control under setting [4], 96 % of control under setting [5], 92 % of control under setting [6] and 99 % of control under setting [1].

With `CCC(=O)N=c1sc(SCc2ccccc2)nn1C(=O)SC` (tested in a mixture with another compound), the T/C is 101 % of control under setting [7]; 96 % of control under setting [4]; 101 % of control under setting [5]; 89 % of control under setting [6]; 86 % of control under setting [1].

Consider `O=C(Nc1cccc(C(F)(F)F)c1)C(Cl)=C(Cl)Cl`, for which the T/C runs as follows: (dose: 37.5 mg/kg/injection, schedule: Q04DX004 (ip), vehicle: Klucel (hydroxypropylcellulose) (HPC)) 95 % of control; (dose: 75.0 mg/kg/injection, schedule: Q04DX004 (ip), vehicle: Klucel (hydroxypropylcellulose) (HPC)) 103 % of control; (dose: 150.0 mg/kg/injection, schedule: Q04DX004 (ip), vehicle: Klucel (hydroxypropylcellulose) (HPC)) 102 % of control; (dose: 300.0 mg/kg/injection, schedule: Q04DX004 (ip), vehicle: Klucel (hydroxypropylcellulose) (HPC)) 102 % of control; (dose: 600.0 mg/kg/injection, schedule: Q04DX004 (ip), vehicle: Klucel (hydroxypropylcellulose) (HPC)) 87 % of control.

As to `c1ccc2c(c1)-c1ccccc1C1NC21` (stereo not given), the T/C (dose: 18.75 mg/kg/injection, schedule: Q04DX004 (ip), vehicle: saline with Tween-80) was 93 % of control; the T/C (dose: 37.5 mg/kg/injection, schedule: Q04DX004 (ip), vehicle: saline with Tween-80) is 98 % of control; the T/C under setting [2] is 94 % of control; the T/C under setting [3] was 96 % of control; the T/C (dose: 300.0 mg/kg/injection, schedule: Q04DX004 (ip), vehicle: saline with Tween-80) was 102 % of control.

Regarding `Nc1nc([Se]c2nc(N)nc3c2ncn3C2OC(CO)C(O)C2O)c2ncn(C3OC(CO)C(O)C3O)c2n1` (stereo not given), the T/C runs as follows: (dose: 25.0 mg/kg/injection, schedule: Q04DX004 (ip), vehicle: distilled water + Tween-80) 123 % of control; (dose: 100.0 mg/kg/injection, schedule: Q04DX004 (ip), vehicle: distilled water + Tween-80) 159 % of control; (dose: 200.0 mg/kg/injection, schedule: Q04DX004 (ip), vehicle: distilled water + Tween-80) 157 % of control and 177 % of control.

With `CCCCCCC1C(C#N)C(=O)NC(=O)C1C#N` (stereo not given), the T/C (dose: 40.63 mg/kg/injection, schedule: Q04DX004 (ip), vehicle: Klucel (hydroxypropylcellulose) (HPC)) was 95 % of control; the T/C (dose: 81.25 mg/kg/injection, schedule: Q04DX004 (ip), vehicle: Klucel (hydroxypropylcellulose) (HPC)) is 94 % of control; the T/C (dose: 162.5 mg/kg/injection, schedule: Q04DX004 (ip), vehicle: Klucel (hydroxypropylcellulose) (HPC)) was 101 % of control; the T/C (dose: 325.0 mg/kg/injection, schedule: Q04DX004 (ip), vehicle: Klucel (hydroxypropylcellulose) (HPC)) was 92 % of control; the T/C (dose: 650.0 mg/kg/injection, schedule: Q04DX004 (ip), vehicle: Klucel (hydroxypropylcellulose) (HPC)) is 87 % of control.

`CC1=CCCC2C1(C)CCC(C)C2(C)Cc1cc(O)ccc1O` (stereo not given): the T/C (dose: 6.25 mg/kg/injection, schedule: Q04DX004 (ip), vehicle: Klucel (hydroxypropylcellulose) (HPC)) is 103 % of control; the T/C (dose: 12.5 mg/kg/injection, schedule: Q04DX004 (ip), vehicle: Klucel (hydroxypropylcellulose) (HPC)) was 99 % of control; the T/C under setting [7] is 101 % of control; the T/C under setting [4] is 99 % of control; the T/C under setting [5] was 102 % of control.

Consider `CC1(C)C2CCC(C2)C1/C=C1/SC(=S)NC1=O` (stereo not given), for which the T/C under setting [7] is 95 % of control; the T/C under setting [4] is 98 % of control; the T/C under setting [5] was 90 % of control; the T/C under setting [6] was 91 % of control; the T/C under setting [1] is 87 % of control.

With `N#CC1C(=O)NC(=O)C(C#N)C1CCc1ccccc1` (stereo not given), the T/C was 105 % of control (dose: 50.0 mg/kg/injection, schedule: Q04DX004 (ip), vehicle: Klucel + Tween-80); 97 % of control (dose: 100.0 mg/kg/injection, schedule: Q04DX004 (ip), vehicle: Klucel + Tween-80); 105 % of control (dose: 200.0 mg/kg/injection, schedule: Q04DX004 (ip), vehicle: Klucel + Tween-80).
